# Structures can show the parent of a compound that is named as a salt.
# Target: T1, Rev-Erb alpha (Homo sapiens, UniProt P20393)
# T1 sequence (P20393 284-614 limits assumed): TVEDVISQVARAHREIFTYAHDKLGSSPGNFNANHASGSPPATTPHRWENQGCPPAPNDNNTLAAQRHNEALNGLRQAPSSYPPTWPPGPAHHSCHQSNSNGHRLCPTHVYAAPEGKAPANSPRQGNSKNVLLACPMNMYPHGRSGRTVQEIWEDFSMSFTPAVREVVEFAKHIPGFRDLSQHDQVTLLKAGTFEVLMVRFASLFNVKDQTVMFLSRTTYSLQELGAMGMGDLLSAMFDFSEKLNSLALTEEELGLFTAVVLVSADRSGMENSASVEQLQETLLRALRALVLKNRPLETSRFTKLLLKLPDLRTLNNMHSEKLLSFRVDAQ
# Experiment: M2H (mammalian two-hybrid) cellular activation assay of Rev-Erb alpha
# Type: cell-based
# Conditions: M2H assay, HEK293 cells; for EC50: Gal4-Rev-Erb alpha / VP16-NCoR, luciferase reporter; for Emax: relative to DMSO, at the tested dose, read-out: TOP activation
# Description: In this system, Rev-Erb alpha or Rev-Erb beta is expressed as a fusion to the Gal4 DNA-binding domain and the cofactor NCoR is expressed as a fusion to the activation domain of the Herpes Simplex Virus tegument protein VP16. These fusion proteins were included in plasmids at a concentration of 1 μg/μL. The pBS-SK+ vector was added to the preparation to adjust the DNA quantity to a fixed value for each condition.
# The transfection mix (Jet-PEI protocol, Polyplus transfection) comprised: • 3 mL of Jet PEI Mix (180 μL Jet-Pei and NaCl at 150 mM) and • 3 mL of the DNA Mix or of the DNA Mix control (wherein the Gal4-Rev-Erb alpha plasmid was replaced by a pGal4phi plasmid).
# DNA Mix comprised 1.2 mL of DNA and 1.8 mL of NaCl at 150 mM with, in a T225 flask: • 90 ng of Gal4-Rev-Erb alpha, or 90 ng of Gal4-Rev-Erb beta, • 4500 ng of VP16-NCoR, • 27000 ng of Gal4-RE and • 13410 ng of pBS-SK+. Cells
# HEK293 cells were cultured in DMEM (Invitrogen 41965) comprising 10% FBS, P/S, 1% glutamine, 1% pyruvate (Invitrogen 11360) and 1% amino acids (Invitrogen 11140). Cells were then batch co-transfected with plasmid vectors (described in the table above) using as Jet-PEI as reagent (Polyplus) following the protocol specified below.
# The 6 mL-transfection mix was transferred in a T225 flask. HEK293 cells were then added at a concentration of 12 Millions of cells for 54 mL of medium (DMEM comprising 10% FBS and 1% P/S). Cells incubated over-night at 37° C. and under 5% CO2.
# This cell-based assay is performed using 384-well Greiner white plates (Reference 781080). After the incubation, cells were rinsed with PBS, trypsinized, centrifuged and resuspended in free-serum DMEM without phenol red (Invitrogen 31053). Cells were counted and adjusted to 0.5 Million per mL and plated at a concentration of 10,000 cells in 20 μL per well. They were incubated a minimum of 4 hours at 37° C. under 5% CO2. Cells were treated with 20 μL of the compound to analyze (concentration of 2× diluted in DMEM without FBS containing a maximum of 1% DMSO) and incubated over-night (18 hours, 37° C. and 5% CO2). Each compound has been tested at 6 different concentrations to depict a dose-effect allowing the measure of biochemical parameters such as EC50 and TOP activation (%).
# Cells were incubated 30 minutes with 40 μL/well of Steady Glow (Promega) and luminescence was read with TECAN Genios Pro (100 ms/w). Four experiments were carried out for each compound.
# Each compound has been tested at 6 different concentrations to depict a dose-effect allowing the measure of biochemical parameters such as EC50 and TOP activation (%).
# The mammalian two-hybrid system (M2H) assay consists herein in studying the ability of compounds according to the invention to activate Rev-Erbalpha in cells and thus modulate the interaction with its corepressor. The interaction of the two proteins is assessed with the help of the Luciferase reporter gene. HEK293 cells were transfected with two gene constructions: Gal4-RE VP16-NCoR and Gal4-Rev-Erbalpha or with Gal4-RE, sVP16-NCoR and Gal4-Rev-Erb beta.
# The ability of compounds according to the invention of activating Rev-Erbalpha alpha or Rev-Erb beta was assessed in the described cell-based assay. EC50 and TOP activation (%) were measured.
Structure (SMILES),EC50,Emax
"FC(F)(F)c1cccc(Oc2ccc3nnc(Cl)n3n2)c1-c1cccnc1 [Cpd.4-129, 3-chloro-6-(2-(pyridin-3-yl)-3-(trifluoromethyl)phenoxy)-[1,2,4]triazolo[4,3-b]pyridazine]",1000 to 6000 nM,
"Cc1cccc(-c2ccccc2Oc2ccc3nnc(C(F)(F)F)n3n2)c1 [Cpd.4-133, 3-(trifluoromethyl)-6-(3′-methylbiphenyl-2-yloxy)-[1,2,4]triazolo[4,3-b]pyridazine]",100 to 1000 nM,
"Cc1cccc(-c2cc(F)ccc2Oc2ccc3nnc(C(F)(F)F)n3n2)c1 [Cpd.4-136, 3-(trifluoromethyl)-6-(5-fluoro-3′-methylbiphenyl-2-yloxy)-[1,2,4]triazolo[4,3-b]pyridazine]",100 to 1000 nM,
"Cc1ccc(-c2cc(F)ccc2Oc2ccc3nnc(C(F)(F)F)n3n2)cc1 [Cpd.4-142, 3-(trifluoromethyl)-6-(5-fluoro-4′-methylbiphenyl-2-yloxy)-[1,2,4]triazolo[4,3-b]pyridazine]",1000 to 6000 nM,
"Oc1cccc(-c2cc(F)c(F)cc2Oc2ccc3nnc(Cl)n3n2)c1 [Cpd.4-153, 3-chloro-6-(4,5-difluoro-3′-hydroxybiphenyl-2-yloxy)-[1,2,4]triazolo[4,3-b]pyridazine]",1000 to 6000 nM,
"CCN(CC)Cc1ccc(Oc2ccc3nnc(Cl)n3n2)c(-c2ccccc2)c1 [Cpd.4-157, 3-chloro-6-(5-diethylaminomethylbiphenyl-2-yloxy)-[1,2,4]triazolo[4,3-b]pyridazine]",> 6000 nM,> 130%
"Clc1nnc2ccc(Oc3ccc(CNCC4CCCO4)cc3-c3ccccc3)nn12 (stereo not shown) [Cpd.4-163, 3-chloro-6-(5-(tetrahydrofurfurylaminomethyl)biphenyl-2-yloxy)-[1,2,4]triazolo[4,3-b]pyridazine]",> 6000 nM,> 130%
"FC(F)(F)c1ccc(-c2cccc(CNC3CC3)c2)c(Oc2ccc3nnc(Cl)n3n2)c1 [Cpd.4-168, 3-chloro-6-(4-(trifluoromethyl)-3′-(cyclopropylaminomethyl)biphenyl-2-yloxy)-[1,2,4]triazolo[4,3-b]pyridazine, hydrochloride]",1000 to 6000 nM,
"CC(C)(C)OC(=O)NCc1ccc(Oc2ccc3nnc(Cl)n3n2)c(-c2ccccc2)c1 [Cpd.4-170, 3-chloro-6-(5-(tertbutyloxycarbonylaminomethyl)biphenyl-2-yloxy)-[1,2,4]triazolo[4,3-b]pyridazine]",100 to 1000 nM,
"CC(=O)OCc1ccc(-c2ccccc2)c(Oc2ccc3nnc(Cl)n3n2)c1 [Cpd.4-172, 3-chloro-6-(4-methylcarbonyloxymethylbiphenyl-2-yloxy)-[1,2,4]triazolo[4,3-b]pyridazine]",100 to 1000 nM,
"CS(=O)(=O)Nc1ccc(Oc2ccc3nnc(Cl)n3n2)c(-c2ccccc2)c1 [Cpd.4-173, 3-chloro-6-(5-methylsulfonamidobiphenyl-2-yloxy)-[1,2,4]triazolo[4,3-b]pyridazine]",1000 to 6000 nM,
"CN1CCN(Cc2ccc(-c3ccccc3)c(Oc3ccc4nnc(Cl)n4n3)c2)CC1 [Cpd.4-177, 3-chloro-6-(4-(1-methylpiperazin-4-ylmethyl)biphenyl-2-yloxy)-[1,2,4]triazolo[4,3-b]pyridazine]",> 6000 nM,> 130%
"CS(=O)(=O)N1CCN(Cc2ccc(-c3ccccc3)c(Oc3ccc4nnc(Cl)n4n3)c2)CC1 [Cpd.4-182, 3-chloro-6-(4-(4-methanesulfonylpiperazin-1-ylmethyl)biphenyl-2-yloxy)-[1,2,4]triazolo[4,3-b]pyridazine]",1000 to 6000 nM,

# Other lines, results leading:
EC50,Emax,Structure (SMILES)
1000 to 6000 nM,,"O=[N+]([O-])c1ccc(Oc2ccc3nnc(Cl)n3n2)c(-c2ccccc2)c1 [Cpd.4-134, 3-chloro-6-(5-nitrobiphenyl-2-yloxy)-[1,2,4]triazolo[4,3-b]pyridazine]"
100 to 1000 nM,,"Cc1ccc(-c2cc(F)ccc2Oc2ccc3nnc(Cl)n3n2)cc1 [Cpd.4-143, 3-chloro-6-(5-fluoro-4′-methylbiphenyl-2-yloxy)-[1,2,4]triazolo[4,3-b]pyridazine]"
1000 to 6000 nM,,"OCc1ccc(-c2ccccc2)c(Oc2ccc3nnc(Cl)n3n2)c1 [Cpd.4-155, 3-chloro-6-(4-(hydroxymethyl)biphenyl-2-yloxy)-[1,2,4]triazolo[4,3-b]pyridazine]"
> 6000 nM,> 130%,"CN1CCN(Cc2ccc(Oc3ccc4nnc(Cl)n4n3)c(-c3ccccc3)c2)CC1 [Cpd.4-159, 3-chloro-6-(5-(4-methylpiperazin-1-ylmethyl)biphenyl-2-yloxy)-[1,2,4]triazolo[4,3-b]pyridazine]"
1000 to 6000 nM,,"Clc1nnc2ccc(Oc3ccc(CNC4CCCC4)cc3-c3ccccc3)nn12 [Cpd.4-160, 3-chloro-6-(5-(cyclopentylaminomethyl)biphenyl-2-yloxy)-[1,2,4]triazolo[4,3-b]pyridazine]"
1000 to 6000 nM,,"CS(=O)(=O)N1CCN(Cc2ccc(Oc3ccc4nnc(Cl)n4n3)c(-c3ccccc3)c2)CC1 [Cpd.4-164, 3-chloro-6-(5-(4-methanesulfonyl-piperazin-1-ylmethyl)biphenyl-2-yloxy)-[1,2,4]triazolo[4,3-b]pyridazine]"
100 to 1000 nM,,"N#Cc1ccc(-c2ccccc2)c(Oc2ccc3nnc(Cl)n3n2)c1 [Cpd.4-169, 3-chloro-6-(4-cyanobiphenyl-2-yloxy)-[1,2,4]triazolo[4,3-b]pyridazine]"
> 6000 nM,> 130%,"NCc1ccc(Oc2ccc3nnc(Cl)n3n2)c(-c2ccccc2)c1 [Cpd.4-171, 3-chloro-6-(5-aminomethylbiphenyl-2-yloxy)-[1,2,4]triazolo[4,3-b]pyridazine, trifluoroacetic acid salt]"
1000 to 6000 nM,,"CC(=O)Nc1ccc(Oc2ccc3nnc(Cl)n3n2)c(-c2ccccc2)c1 [Cpd.4-174, 3-chloro-6-(5-acetamidobiphenyl-2-yloxy)-[1,2,4]triazolo[4,3-b]pyridazine]"
1000 to 6000 nM,,"Clc1nnc2ccc(Oc3cc(CNCC4CCCCC4)ccc3-c3ccccc3)nn12 [Cpd.4-176, 3-chloro-6-(4-(cyclohexylmethyl)aminomethylbiphenyl-2-yloxy)-[1,2,4]triazolo[4,3-b]pyridazine]"
1000 to 6000 nM,,"Clc1nnc2ccc(Oc3cc(CNC4CC4)ccc3-c3ccccc3)nn12 [Cpd.4-178, 3-chloro-6-(4-cyclopropylaminomethylbiphenyl-2-yloxy)-[1,2,4]triazolo[4,3-b]pyridazine]"
1000 to 6000 nM,,"Clc1nnc2ccc(Oc3cc(CNC4CCCC4)ccc3-c3ccccc3)nn12 [Cpd.4-179, 3-chloro-6-(4-cyclopentylaminomethylbiphenyl-2-yloxy)-[1,2,4]triazolo[4,3-b]pyridazine]"
> 6000 nM,> 130%,Clc1nnc2ccc(Oc3cc(CNCC4CCCO4)ccc3-c3ccccc3)nn12 (stereo not shown) [Cpd.4-180]
1000 to 6000 nM,,"CC(C)(C)OC(=O)NCc1ccc(-c2ccccc2)c(Oc2ccc3nnc(Cl)n3n2)c1 [Cpd.4-186, 3-chloro-6-(4-tertbutyloxycarbonylaminomethylbiphenyl-2-yloxy)-[1,2,4]triazolo[4,3-b]pyridazine]"
1000 to 6000 nM,,"CC(C)C(=O)Nc1ccc(Oc2ccc3nnc(Cl)n3n2)c(-c2ccccc2)c1 [Cpd.4-192, 3-chloro-6-(5-isopropylcarbonylamino-biphenyl-2-yloxy)-[1,2,4]triazolo[4,3-b]pyridazine]"

# Reference: US9586963B2 (GENFIT, priority 2011, dated 2017)
